Measured values from US20070117743A1, “New antitumoral compounds” (priority 2003, published 2007).
Where two headings read alike, the source gives them in different places. Where a SMILES comes first, the peptide text is derived from it. Bridges are numbered along the chain shown (N, C = ends). [ ]: non-standard residue; d: D form. The star is where a group is joined. d(aIle) = CC[C@H](C)[C@@H](N)C(=O)O; d(aThr) = C[C@@H](O)[C@@H](N)C(=O)O; Hexanoyl(5-Me) = CC(C)CCCC(=O)*; Orn = NCCC[C@H](N)C(=O)O; Dhb = C/C=C(\N)C(=O)O

Legend:
Assay type in all cases: cell-based, human
DU-145 = experiment: SRB colorimetric assay of cell growth and viability, DU-145; conditions: 48 hours exposure
HeLa-APL = experiment: SRB colorimetric assay of cell growth and viability, HeLa-APL; conditions: 48 hours exposure; for CC50: read-out: LC50 HELA-APL
HT-29 = experiment: SRB colorimetric assay of cell growth and viability, HT-29; conditions: 48 hours exposure; for GI50: read-out: GI50 HT-29; for CC50: read-out: LC50 HT-29
A-549 = experiment: SRB colorimetric assay of cell growth and viability, A-549; conditions: 48 hours exposure; for GI50: read-out: GI50 A-549; for CC50: read-out: LC50 A-549
K-562 = experiment: SRB colorimetric assay of cell growth and viability, K-562; conditions: 48 hours exposure; for CC50: read-out: LC50 K-562
LoVo-Dox = experiment: SRB colorimetric assay of cell growth and viability, LoVo-Dox; conditions: 48 hours exposure; for CC50: read-out: LC50 LOVO-DOX
Method in brief: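 48 h continuous exposure, 10 to 10^−8 μg/mL; 5×10^3 cells/well, 18 h attachment; TCA fix, 0.4% SRB, OD 490 nm. Triplicates; GI, TGI, LC derived.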

IGROV-1 = experiment: SRB colorimetric assay of cell growth and viability, IGROV-1; conditions: 48 hours exposure
PANC-1 = experiment: SRB colorimetric assay of cell growth and viability, PANC-1; conditions: 48 hours exposure; for CC50: read-out: LC50 PANC-1
SK-BR-3 = experiment: SRB colorimetric assay of cell growth and viability, SK-BR-3; conditions: 48 hours exposure
Source text: The finality of this assay is to interrupt the growth of a “in vitro” tumor cell culture by means a continued exhibition of the cells to the sample to be testing.
This form of the assay employs 96 well cell culture microplates of 9 mm diameter (Faircloth, 1988; Mosmann, 1983). Most of the cell lines are obtained from American Type Culture Collection (ATCC) derived from different human cancer types.
Cells are maintained in RPMI 1640 10% FBS, supplemented with 0.1 g/l penicillin and 0.1 g/l streptomycin sulfate and then incubated at 37° C., 5% CO2 and 98% humidity. For the experiments, cells were harvested from subconfluent cultures using trypsin and resuspended in fresh medium before plating.
Cells are seeded in 96 well microtiter plates, at 5×10^3 cells per well in aliquots of 195 μL medium, and they are allowed to attach to the plate surface by growing in drug free medium for 18 hours. Afterward, samples are added in aliquots of 5 μL in a ranging from 10 to 10^−8 μg/mL, dissolved in DMSO:EtOH:PBS (0.5:0.5:99). After 48 hours exposure, the antitumor effect are measured by the SRB methodology: cells are fixed by adding 50 μL of cold 50% (wt/vol) trichloroacetic acid (TCA) and incubating for 60 minutes at 4° C. Plates are washed with deionized water and dried. One hundred μL of SRB solution (0.4% wt/vol in 1% acetic acid) is added to each microtiter well and incubated for 10 minutes at room temperature. Unbound SRB is removed by washing with 1% acetic acid. Plates are air dried and bound stain is solubilized with Tris buffer. Optical densities are read on a automated spectrophotometric plate reader at a single wavelength of 490 nm.
The values for mean+/− SD of data from triplicate wells are calculated. Some parameters for cellular responses can be calculated: GI=growth inhibition, TGI=total growth inhibition (cytostatic effect) and LC=cell killing (cytotoxic effect).

IGROV-ET = experiment: SRB colorimetric assay of cell growth and viability, IGROV-ET; conditions: 48 hours exposure; for CC50: read-out: LC50 IGROV-ET
SK-MEL-28 = experiment: SRB colorimetric assay of cell growth and viability, SK-MEL-28; conditions: 48 hours exposure; for CC50: read-out: LC50 MEL-28
HeLa = experiment: SRB colorimetric assay of cell growth and viability, HeLa; conditions: 48 hours exposure; for CC50: read-out: LC50 HELA
LoVo = experiment: SRB colorimetric assay of cell growth and viability, LoVo; conditions: 48 hours exposure; for CC50: read-out: LC50 LOVO

SMILES: C/C=C1\NC(=O)[C@H](Cc2ccccc2)NC(=O)[C@@H](C(C)C)NC(=O)[C@@H]([C@@H](C)CC)NC(=O)[C@H](NC(=O)[C@H](NC(=O)[C@H](CCCN)NC(=O)[C@H]2CCCN2C(=O)[C@H](NC(=O)[C@@H](NC(=O)[C@H](CCC(N)=O)NC(=O)[C@H](NC(=O)CCCC(C)C)C(C)C)C(C)C)C(C)C)[C@@H](C)CC)[C@@H](C)OC(=O)[C@H](C(C)C)NC1=O [Compound 119, [Gln^12]-KF] ({Hexanoyl(5-Me)}-[dV]QV[dV][dP][Orn][d(aIle)][d(aThr)][d(aIle)][dV]F[Dhb]V; ester 8-C)
- GI50 (DU-145; DU-145): 1.99 µM
- LC50 (concentration causing 50% net cell kill) (DU-145; DU-145): 1.99 µM
- TGI DU-145 (DU-145; DU-145): 1.99E−06 Molar
- GI50 (HeLa-APL; HELA-APL): 1.99 µM
- TGI HELA-APL (HeLa-APL; HELA-APL): 1.99E−06 Molar
- CC50 (HeLa-APL; HELA-APL): 1.99 µM
- TGI HT-29 (HT-29; HT-29): 1.35E−06 Molar
- GI50 (HT-29; HT-29): 0.864 µM
- CC50 (HT-29; HT-29): 1.99 µM
- TGI A-549 (A-549; A-549): 1.99E−06 Molar
- GI50 (A-549; A-549): 1.99 µM
- CC50 (A-549; A-549): 1.99 µM
- GI50 (K-562; K-562): 1.99 µM
- TGI K-562 (K-562; K-562): 1.99E−06 Molar
- CC50 (K-562; K-562): 1.99 µM
- GI50 (LoVo-Dox; LOVO-DOX): 0.591 µM
- TGI LOVO-DOX (LoVo-Dox; LOVO-DOX): 1.16E−06 Molar
- CC50 (LoVo-Dox; LOVO-DOX): 1.99 µM
- GI50 (IGROV-1; IGROV): 0.651 µM
- LC50 (concentration causing 50% net cell killing) (IGROV-1; IGROV): 1.74 µM
- TGI IGROV (IGROV-1; IGROV): 1.07E−06 Molar
- GI50 (PANC-1; PANC-1): 1.99 µM
- TGI PANC-1 (PANC-1; PANC-1): 1.99E−06 Molar
- CC50 (PANC-1; PANC-1): 1.99 µM
- GI50 (SK-BR-3; SK-BR-3): 0.258 µM
- LC50 (SK-BR-3; SK-BR-3): 1.56 µM
- TGI SK-BR-3 (SK-BR-3; SK-BR-3): 5.34E−07 Molar
- GI50 (IGROV-ET; IGROV-ET): 0.764 µM
- TGI IGROV-ET (IGROV-ET; IGROV-ET): 1.37E−06 Molar
- CC50 (IGROV-ET; IGROV-ET): 1.99 µM
- GI50 (SK-MEL-28; MEL-28): 1.99 µM
- TGI MEL-28 (SK-MEL-28; MEL-28): 1.99E−06 Molar
- CC50 (SK-MEL-28; MEL-28): 1.99 µM
- GI50 (HeLa; HELA): 0.379 µM
- TGI HELA (HeLa; HELA): 6.64E−07 Molar
- CC50 (HeLa; HELA): 1.99 µM

SMILES: [2H]C([2H])([2H])C([2H])(C([2H])([2H])[2H])[C@]([2H])(NC(=O)[C@@H](NC(=O)[C@H](NC(=O)CCCC(C)C)C(C)C)[C@@H](C)O)C(=O)N[C@@H](C(=O)N1CCC[C@@H]1C(=O)N[C@@H](CCCN)C(=O)N[C@@H](C(=O)N[C@H]1C(=O)N[C@H]([C@@H](C)CC)C(=O)N[C@H](C(C)C)C(=O)N[C@@H](Cc2ccccc2)C(=O)N/C(=C\C)C(=O)N[C@@H](C(C)C)C(=O)O[C@@H]1C)[C@@H](C)CC)C(C)C [Compound 100, [L-Val-d8^11]-KF]
- GI50 (DU-145; SRB): 0.544 µM
- TGI DU-145 (DU-145; SRB): 9.69E−07 Molar
- LC50 (concentration causing 50% net cell kill) (DU-145; DU-145): 1.59 µM
- TGI HT-29 (HT-29; HT-29): 6.50E−07 Molar
- GI50 (HT-29; HT-29): 0.318 µM
- CC50 (HT-29; HT-29): 1.18 µM
- TGI A-549 (A-549; A-549): 1.88E−06 Molar
- GI50 (A-549; A-549): 1.88 µM
- CC50 (A-549; A-549): 1.88 µM
- GI50 (K-562; K-562): 1.88 µM
- TGI K-562 (K-562; K-562): 1.88E−06 Molar
- CC50 (K-562; K-562): 1.88 µM
- GI50 (LoVo-Dox; LOVO-DOX): 0.123 µM
- TGI LOVO-DOX (LoVo-Dox; LOVO-DOX): 6.88E−07 Molar
- CC50 (LoVo-Dox; LOVO-DOX): 1.38 µM
- GI50 (IGROV-1; SRB): 0.781 µM
- TGI IGROV (IGROV-1; SRB): 1.16E−06 Molar
- LC50 (concentration causing 50% net cell killing) (IGROV-1; IGROV): 1.73 µM
- GI50 (PANC-1; PANC-1): 1.88 µM
- TGI PANC-1 (PANC-1; PANC-1): 1.88E−06 Molar
- CC50 (PANC-1; PANC-1): 1.88 µM
- GI50 (SK-BR-3; SRB): 0.348 µM
- TGI SK-BR-3 (SK-BR-3; SRB): 8.19E−07 Molar
- LC50 (SK-BR-3; SK-BR-3): 1.45 µM
- GI50 (LoVo; LOVO): 0.181 µM
- TGI LOVO (LoVo; LOVO): 6.38E−07 Molar
- CC50 (LoVo; LOVO): 1.26 µM
- GI50 (IGROV-ET; SRB): 0.399 µM
- TGI IGROV-ET (IGROV-ET; SRB): 7.63E−07 Molar
- CC50 (IGROV-ET; IGROV-ET): 1.75 µM
- GI50 (SK-MEL-28; SRB): 0.963 µM
- TGI MEL-28 (SK-MEL-28; SRB): 1.46E−06 Molar
- CC50 (SK-MEL-28; MEL-28): 1.88 µM
- GI50 (HeLa; HELA): 0.681 µM
- TGI HELA (HeLa; HELA): 1.15E−06 Molar
- CC50 (HeLa; HELA): 1.88 µM

SMILES: C/C=C1\NC(=O)[C@H](Cc2ccccc2)NC(=O)[C@@H](C(C)C)NC(=O)[C@@H]([C@@H](C)CC)NC(=O)[C@H](NC(=O)[C@H](NC(=O)[C@H](CCCN)NC(=O)[C@H]2CCCN2C(=O)[C@H](NC(=O)[C@@H](NC(=O)[C@@H](NC(=O)[C@@H](CC(C)C)NC(=O)CCCC(C)C)[C@@H](C)O)C(C)C)C(C)C)[C@@H](C)CC)[C@@H](C)OC(=O)[C@H](C(C)C)NC1=O [Compound 35, [D-Leu^13]-KF]
- GI50 (DU-145): 0.905 µM
- LC50 (concentration causing 50% net cell kill) (DU-145): 3.53 µM
- TGI DU-145 (DU-145): 1.79E−06 Molar
- GI50 (HeLa-APL): 0.0133 µM
- TGI HELA-APL (HeLa-APL): 1.31E−06 Molar
- CC50 (HeLa-APL): 6.7 µM
- TGI HT-29 (HT-29): 1.62E−06 Molar
- GI50 (HT-29): 0.771 µM
- CC50 (HT-29): 3.39 µM
- TGI A-549 (A-549): 9.58E−07 Molar
- GI50 (A-549): 0.124 µM
- CC50 (A-549): 2.65 µM
- GI50 (K-562): 1.23 µM
- TGI K-562 (K-562): 2.30E−06 Molar
- CC50 (K-562): 4.28 µM
- GI50 (LoVo-Dox): 0.158 µM
- TGI LOVO-DOX (LoVo-Dox): 3.46E−07 Molar
- CC50 (LoVo-Dox): 0.871 µM
- GI50 (IGROV-1): 0.717 µM
- LC50 (concentration causing 50% net cell killing) (IGROV-1): 3.24 µM
- TGI IGROV (IGROV-1): 1.53E−06 Molar
- GI50 (PANC-1): 0.751 µM
- TGI PANC-1 (PANC-1): 1.87E−06 Molar
- CC50 (PANC-1): 4.67 µM
- GI50 (LoVo): 0.2 µM
- TGI LOVO (LoVo): 8.04E−07 Molar
- CC50 (LoVo): 2.28 µM
- GI50 (IGROV-ET): 0.684 µM
- TGI IGROV-ET (IGROV-ET): 1.49E−06 Molar
- CC50 (IGROV-ET): 3.26 µM
- GI50 (SK-MEL-28): 1.17 µM
- TGI MEL-28 (SK-MEL-28): 2.10E−06 Molar
- CC50 (SK-MEL-28): 3.79 µM
- GI50 (HeLa): 0.878 µM
- TGI HELA (HeLa): 1.74E−07 Molar
- CC50 (HeLa): 3.43 µM
